The values that follow come from ChEMBL document CHEMBL1821612, “Discovery of novel antitubercular 3a,4-dihydro-3H-indeno[1,2-c]pyrazole-2-carboxamide/carbothioamide analogues” (Bioorg Med Chem Lett, 2011).

The subject of test [1] is Mycobacterium tuberculosis. The test is described as follows: Antimycobacterial activity against isoniazid-resistant Mycobacterium tuberculosis after 2 weeks by BACTEC 460 radiometric method. The format is functional. The settings on record: 336 h.
Test [2] concerns Mycobacterium tuberculosis. The test can be described thus: Ratio of isoniazid MIC to compound MIC for isoniazid-resistant Mycobacterium tuberculosis. It is filed as functional.

The term MIC denotes the lowest concentration found to suppress growth. A high value points to a less susceptible organism.

≈ marks a conversion by molar mass, not a printed value.

For `COc1cc2c(cc1OC)C1=NN(C(=O)Nc3ccc(C)cc3C)C(c3ccc(F)cc3)C1C2` (stereo unspecified), the MIC in test [1] is 12.5 µM (≈ 5.74 µg/mL).

In test [1], `COc1ccc(C2C3Cc4cc(OC)c(OC)cc4C3=NN2C(=O)Nc2ccc(C)cc2C)cc1OC` (stereo unspecified) returned a minimal inhibitory concentration (MIC) of more than 12.5 µM. Still for that read-out and setting: the value for `COc1cc2c(cc1OC)C1=NN(C(=O)Nc3ccc(C)cc3C)C(c3ccccc3Cl)C1C2` (stereo unspecified) was 10 µM (≈ 4.76 µg/mL); that for `COc1ccc(C2C3Cc4cc(OC)c(OC)cc4C3=NN2C(=O)Nc2c(C)cccc2C)cc1` (stereo unspecified) was more than 12.5 µM. Still for that read-out and setting: next, `CO[C@H]1/C=C/O[C@@]2(C)Oc3c(C)c(O)c4c(O)c(c(/C=N/N5CCN(C)CC5)c(O)c4c3C2=O)NC(=O)/C(C)=C\C=C\[C@H](C)[C@H](O)[C@@H](C)[C@@H](O)[C@@H](C)[C@H](OC(C)=O)[C@@H]1C` [RIFAMPIN]: 3.12 µM (≈ 2.57 µg/mL); `COc1cc2c(cc1OC)C1=NN(C(=O)Nc3c(C)cccc3C)C(c3ccccc3Cl)C1C2` (stereo unspecified): 12.5 µM (≈ 5.95 µg/mL). Still for that read-out and setting: the value for `COc1cc2c(cc1OC)C1=NN(C(=O)Nc3c(C)cccc3C)C(c3ccc(F)cc3)C1C2` (stereo unspecified) was 10 µM (≈ 4.6 µg/mL); that for `COc1cc2c(cc1OC)C1=NN(C(N)=S)C(c3ccccc3)C1C2` (stereo unspecified) was 12.5 µM (≈ 4.42 µg/mL).

Take `COc1ccc(C2C3Cc4cc(OC)c(OC)cc4C3=NN2C(N)=S)cc1` (stereo unspecified): the MIC in test [1] is more than 12.5 µM.

`COc1cc2c(cc1OC)C1=NN(C(N)=S)C(c3ccncc3)C1C2` (stereo unspecified): 10 µM (≈ 3.54 µg/mL) was the least that counted as inhibitory in test [1] (MIC). `COc1cc2c(cc1OC)C1=NN(C(N)=S)C(c3ccc(F)cc3)C1C2` (stereo unspecified) gave an MIC in test [1] of 6.25 µM (≈ 2.32 µg/mL). The Ratio in test [2] is 2.

On to `COc1cc2c(cc1OC)C1=NN(C(N)=S)C(c3ccccc3Cl)C1C2` (stereo unspecified), for which, in test [1], the MIC was found to be 10 µM (≈ 3.88 µg/mL). `COc1ccc(C2C3Cc4cc(OC)c(OC)cc4C3=NN2C(N)=S)cc1OC` (stereo unspecified): the minimum inhibitory concentration (MIC) in test [1] was found to be 12.5 µM (≈ 5.17 µg/mL). The compound `COc1cc2c(cc1OC)C1=NN(C(=O)Nc3ccc(C)cc3C)C(c3ccccc3)C1C2` (stereo unspecified) displayed an MIC in test [1] of more than 12.5 µM. Take `COc1ccc(C2C3Cc4cc(OC)c(OC)cc4C3=NN2C(=O)Nc2c(C)cccc2C)cc1OC` (stereo unspecified): the minimum inhibitory concentration (MIC) in test [1] was more than 12.5 µM. Still for that read-out and setting: the value for `COc1cc2c(cc1OC)C1=NN(C(=O)Nc3c(C)cccc3C)C(c3ccncc3)C1C2` (stereo unspecified) was more than 12.5 µM. Same read-out and setting: next, `COc1cc2c(cc1OC)C1=NN(C(=O)Nc3ccc(C)cc3C)C(c3ccncc3)C1C2` (stereo unspecified): more than 12.5 µM; `NNC(=O)c1ccncc1` [ISONIAZID]: 12.5 µM (≈ 1.71 µg/mL); `COc1ccc(C2C3Cc4cc(OC)c(OC)cc4C3=NN2C(=O)Nc2ccc(C)cc2C)cc1` (stereo unspecified): more than 12.5 µM.

`COc1cc2c(cc1OC)C1=NN(C(=O)Nc3c(C)cccc3C)C(c3ccccc3)C1C2` (stereo unspecified) displayed an MIC in test [1] of more than 12.5 µM.
